Measurements from ChEMBL document CHEMBL1201862, “PubChem BioAssay data set” (2004).
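Results reflect a 48-hour exposure of cells in 96-well plates to compound at five concentrations. GI50: concentration for 50% inhibition of growth.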 Active and inactive are the calls of the source. Cut-off read from the data, not from the text of the source: active = GI50 up to about 1.1 µM and inactive = higher.

Legend:
Assay in all cases: inhibition of tumour cell growth, NCI panel, 48 h
A498 = tested on: A498
ACHN = tested on: ACHN
CCRF-CEM = tested on: CCRF-CEM
HCC 2998 = tested on: HCC 2998
HOP-62 = tested on: HOP-62
IGROV-1 = tested on: IGROV-1
K562 = tested on: K562
M14 = tested on: M14
Malme-3M = tested on: Malme-3M
RPMI-8226 = tested on: RPMI-8226
SK-MEL-28 = tested on: SK-MEL-28
SK-MEL-5 = tested on: SK-MEL-5
SN12C = tested on: SN12C
UO-31 = tested on: UO-31
SF-295 = tested on: SF-295
SK-MEL-2 = tested on: SK-MEL-2

Measured: GI50

CCCCCCN(N)C(=O)CC#N
inactive: A498 > 100 µM | ACHN 95.5 µM | CCRF-CEM > 100 µM | HCC 2998 > 100 µM | HOP-62 > 100 µM | IGROV-1 > 100 µM | K562 39.6 µM | M14 > 100 µM | Malme-3M > 100 µM | RPMI-8226 19.8 µM | SK-MEL-28 > 100 µM | SK-MEL-5 70.6 µM | SN12C > 100 µM | UO-31 > 100 µM

CCCC(C)C[C@@H](C)CC(C)/C=C(\C)c1oc(=O)c(C)c(O)c1C.CC[C@@H](C)C[C@@H](C)C[C@@H](C)/C=C(\C)c1oc(=O)c(C)c(O)c1C (stereo partly specified)
inactive: ACHN 5.57 µM | HCC 2998 12.9 µM | HOP-62 18.7 µM | M14 15.5 µM | Malme-3M 3.56 µM | SF-295 12.8 µM | SK-MEL-28 14.8 µM | SK-MEL-2 9.48 µM | SN12C 15.3 µM | UO-31 13.6 µM

Cc1cc(O)c2c3c1C(=O)Oc1c(CO)c(O)c(C(=O)O)c(c1O3)C=NN=Cc1c3c(c(CO)c(O)c1C(=O)O)OC(=O)c1c(C)cc(O)c(c1O3)C=NN=C2
inactive: A498 > 100 µM | ACHN > 100 µM | HCC 2998 > 100 µM | HOP-62 > 100 µM | IGROV-1 > 100 µM | M14 > 100 µM | Malme-3M > 100 µM | SF-295 > 100 µM | SK-MEL-28 > 100 µM | SK-MEL-5 40.2 µM | SN12C > 100 µM | UO-31 > 100 µM

O=C1N[C@H](Cc2c[nH]cn2)C(=O)N2CCC[C@@H]12
inactive: ACHN > 100 µM | CCRF-CEM > 100 µM | HCC 2998 > 100 µM | HOP-62 > 100 µM | IGROV-1 > 100 µM | K562 > 100 µM | M14 > 100 µM | Malme-3M > 100 µM | RPMI-8226 > 100 µM | SF-295 > 100 µM | SK-MEL-28 > 100 µM | SK-MEL-2 > 100 µM | SK-MEL-5 > 100 µM | SN12C > 100 µM | UO-31 > 100 µM

N#Cc1c(-c2ccc(Cl)c(Cl)c2)c(-c2ccc(Cl)c(Cl)c2)nn(CC(=O)O)c1=O
inactive: ACHN 61.5 µM | CCRF-CEM 48.2 µM | HCC 2998 52.2 µM | HOP-62 > 100 µM | IGROV-1 > 100 µM | K562 43.9 µM | M14 99.8 µM | Malme-3M > 100 µM | RPMI-8226 79.4 µM | SF-295 48.6 µM | SK-MEL-28 75.2 µM | SK-MEL-2 > 100 µM | SK-MEL-5 34.7 µM | SN12C 51.3 µM | UO-31 57.8 µM
